Results published in patent publication US12268683B2, “Compounds and methods for synergistic activation of M channels” (THE REGENTS OF THE UNIVERSITY OF CALIFORNIA, priority 2018, dated 2025).

Legend:
KCNQ2-R213A/KCNQ3 = KCNQ2-R213A/KCNQ3 (Homo sapiens, UniProt O43525+O43526, R213A); assay: TEVC of KCNQ2-R213A/KCNQ3 channels; type: cell-based
Text: (§1) As previously described (12), we generated cRNA transcripts encoding human KCNA1, KCNE1, KCNE2, KCNE3, KCNQ1, KCNQ2, KCNQ3, KCNQ4 or KCNQ5 by in vitro transcription using the T7 polymerase mMessage mMachine kit (Thermo Fisher Scientific), after vector linearization, from cDNA sub-cloned into plasmids incorporating Xenopus laevis β-globin 5′ and 3′ UTRs flanking the coding region to enhance translation and cRNA stability. We quantified cRNA by spectrophotometry. We generated mutant KCNQ2 and KCNQ3 cDNAs by site-directed mutagenesis with a QuikChange kit (Stratagene, San Diego, Calif.) and prepared the cRNAs as above. We injected defolliculated stage V and VI Xenopus laevis oocytes (Ecocyte Bioscience, Austin, Tex. and Xenoocyte, Dexter, Mich., US) with KCNE and/or KCNQ cRNAs (5-20 ng). […]
(§2) We performed TEVC at room temperature using an OC-725C amplifier (Warner Instruments, Hamden, Conn.) and pClamp10 software (Molecular Devices, Sunnyvale, Calif.) 2-5 days after cRNA injection as described in the section above. […] We recorded currents in response to voltage pulses between −120 or −80 mV and +40 mV at 20 mV intervals from a holding potential of −80 mV, to yield current-voltage relationships, current magnitude, and for quantifying activation rate. We analyzed data using Clampfit (Molecular Devices) and Graphpad Prism software (GraphPad, San Diego, Calif., USA); values are stated as mean±SEM. […]

KCNQ1/KCNE1 = KCNQ1/KCNE1 (Homo sapiens, UniProt P51787); assay: TEVC of KCNQ1/KCNE1 channels; type: cell-based
Text: as §1, §2

KCNQ1/KCNE3 = KCNQ1/KCNE3 (Homo sapiens, UniProt P51787); assay: TEVC of KCNQ1/KCNE3 channels; type: cell-based
Text: as §1, §2

KCNQ2/KCNQ3-R242A = KCNQ2/KCNQ3-R242A (Homo sapiens, UniProt O43525+O43526, R242A); assay: TEVC of KCNQ2/KCNQ3-R242A channels; type: cell-based
Text: as §1, §2

[1] = rats fed Mallotus philippensis extract; cited from earlier work

Row | Structure (SMILES) | effect on KCNQ2-R213A/KCNQ3 (in words) (KCNQ2-R213A/KCNQ3) | sensitivity of KCNQ1-KCNE1, fold less sensitive than KCNQ1 (KCNQ1/KCNE1) | EC50 (KCNQ1/KCNE1; read-out: EC50 of KCNQ1/KCNE1 activation) [nM] | effect on KCNQ1/KCNE3 (in words) (KCNQ1/KCNE3) | response of KCNQ2/KCNQ3-R242A (in words) (KCNQ2/KCNQ3-R242A) | oral bioavailability [1] [%] | plasma concentration [1]
1 | CCCCCCCCC/C=C/C=O [(E)-2-dodecenal] | completely insensitive | > twofold | 260 ± 100 | activated | almost as much as wild-type KCNQ2/3 |  | 
2 | CC(=O)c1c(O)c(C)c(O)c(Cc2c(O)c3c(c(C(=O)/C=C/c4ccccc4)c2O)OC(C)(C)C=C3)c1O [MTX, mallotoxin] |  |  |  |  |  | > 20 | exceeded 2 μg/ml
